ChEMBL document CHEMBL2202959, “Essential structure of opioid κ receptor agonist nalfurafine for binding to the κ receptor 3: synthesis of decahydro(iminoethano)phenanthrene derivatives with an oxygen functionality at the 3-position and their pharmacologies” (Bioorg Med Chem Lett, 2012)

Tests used:
[1] = Selectivity ratio of Ki for delta opioid receptor in mouse whole brain membranes without cerebellum to Ki for kappa opioid receptor in guinea pig cerebellum membranes; format: cell membranes
[2] = biological target: Kappa-type opioid receptor (Cavia porcellus, UniProt P41144); test: Displacement of [3H]U-69,593 from kappa opioid receptor in guinea pig cerebellum membranes; format: cell membranes, Membrane
Chain of Kappa-type opioid receptor (P41144 whole entry): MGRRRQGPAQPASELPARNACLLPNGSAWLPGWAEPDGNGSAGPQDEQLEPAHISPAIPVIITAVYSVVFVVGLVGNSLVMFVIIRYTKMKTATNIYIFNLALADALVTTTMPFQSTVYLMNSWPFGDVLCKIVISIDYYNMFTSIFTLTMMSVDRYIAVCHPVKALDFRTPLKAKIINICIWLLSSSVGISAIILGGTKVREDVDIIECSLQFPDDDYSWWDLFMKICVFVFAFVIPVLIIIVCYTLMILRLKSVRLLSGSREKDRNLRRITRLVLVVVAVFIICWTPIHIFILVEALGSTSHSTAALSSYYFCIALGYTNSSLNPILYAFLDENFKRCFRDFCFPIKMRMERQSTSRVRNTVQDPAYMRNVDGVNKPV

Mu-type opioid receptor = Mu-type opioid receptor (Mus musculus, UniProt P42866); test: Displacement of [3H]DAMGO from mu opioid receptor in mouse whole brain membranes without cerebellum; format: cell membranes, Membrane
Chain of Mu-type opioid receptor (P42866 whole entry): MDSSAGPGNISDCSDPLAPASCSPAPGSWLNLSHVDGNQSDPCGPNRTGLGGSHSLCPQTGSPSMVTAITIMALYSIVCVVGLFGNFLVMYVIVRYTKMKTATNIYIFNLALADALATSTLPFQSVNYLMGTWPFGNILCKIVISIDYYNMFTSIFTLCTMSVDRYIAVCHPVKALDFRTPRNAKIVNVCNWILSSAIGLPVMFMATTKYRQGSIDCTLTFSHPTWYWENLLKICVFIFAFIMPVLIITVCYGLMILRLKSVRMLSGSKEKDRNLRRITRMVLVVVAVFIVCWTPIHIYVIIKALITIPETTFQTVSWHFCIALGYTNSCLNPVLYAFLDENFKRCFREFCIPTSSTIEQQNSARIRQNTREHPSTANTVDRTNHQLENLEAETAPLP

[3] = biological target: Delta-type opioid receptor (Mus musculus, UniProt P32300); test: Displacement of [3H]DPDPE from delta opioid receptor in mouse whole brain membranes without cerebellum; format: cell membranes, Membrane
Chain of Delta-type opioid receptor (P32300 whole entry): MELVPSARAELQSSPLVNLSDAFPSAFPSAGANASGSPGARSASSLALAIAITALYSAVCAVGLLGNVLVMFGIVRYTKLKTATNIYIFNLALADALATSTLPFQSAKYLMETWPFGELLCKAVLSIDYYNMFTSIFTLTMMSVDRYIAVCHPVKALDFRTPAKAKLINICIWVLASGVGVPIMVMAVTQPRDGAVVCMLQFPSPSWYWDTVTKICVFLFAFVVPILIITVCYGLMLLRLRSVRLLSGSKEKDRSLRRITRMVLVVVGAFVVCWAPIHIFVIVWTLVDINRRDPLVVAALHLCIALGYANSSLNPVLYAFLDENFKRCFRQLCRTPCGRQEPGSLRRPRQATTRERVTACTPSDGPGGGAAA

[4] = Selectivity ratio of Ki for mu opioid receptor in mouse whole brain membranes without cerebellum to Ki for kappa opioid receptor in guinea pig cerebellum membranes; format: cell membranes

Q: Which Ratio Ki [1] does the source give for `CN(C(=O)/C=C/c1ccoc1)[C@@H]1CC[C@@]2(O)[C@H]3Cc4ccccc4[C@@]2(CCN3CC2CC2)C1` here?
A: 95

Q: And the Ki [2]?
A: 0.34 nM

Q: And the Ki (Mu-type opioid receptor)?
A: 12.3 nM

Q: What about the Ki [3] of the same compound?
A: 32.4 nM

Q: And the Ratio Ki [4]?
A: 36

Q: Which results are given for `CN(C(=O)/C=C/c1ccoc1)[C@H]1CC[C@@]2(O)[C@H]3Cc4cccc5c4[C@@]2(CCN3CC2CC2)[C@H]1O5`?
A: Ratio Ki [1]: 146; Ki [2]: 0.34 nM; Ki (Mu-type opioid receptor): 8.88 nM; Ki [3]: 49.5 nM; Ratio Ki [4]: 26

Q: What does the source list for `CN(C(=O)/C=C/c1ccoc1)[C@@H]1CC[C@@]2(O)[C@H]3CC4=C(CC(=O)CC4)[C@@]2(CCN3CC2CC2)C1`?
A: Ratio Ki [1]: 5.1; Ki [2]: 14.5 nM; Ki (Mu-type opioid receptor): 51.1 nM; Ki [3]: 74.2 nM; Ratio Ki [4]: 3.5

Q: For `CN(C(=O)/C=C/c1ccoc1)[C@H]1CC[C@@]2(O)[C@H]3CC4=C(CCCC4)[C@@]2(CCN3CC2CC2)C1`, which Ratio Ki [1] is on record?
A: 13

Q: What about the Ki [2] of the same compound?
A: 2.06 nM

Q: And the Ki (Mu-type opioid receptor)?
A: 147 nM

Q: What about the Ki [3] of the same compound?
A: 26.4 nM

Q: What about the Ratio Ki [4] of the same compound?
A: 71

Q: For `CN(C(=O)/C=C/c1ccoc1)[C@@H]1CC[C@@]2(O)[C@H]3CC4=C(C[C@H](O)CC4)[C@@]2(CCN3CC2CC2)C1`, which Ratio Ki [1] is on record?
A: 65

Q: And the Ki [2]?
A: 0.733 nM

Q: What about the Ki (Mu-type opioid receptor) of the same compound?
A: 57.6 nM

Q: And the Ki [3]?
A: 47.5 nM

Q: What about the Ratio Ki [4] of the same compound?
A: 79

Q: For `CN(C(=O)/C=C/c1ccoc1)[C@@H]1CC[C@@]2(O)[C@H]3CC4=C(C[C@@H](O)CC4)[C@@]2(CCN3CC2CC2)C1`, which Ratio Ki [1] is on record?
A: 328

Q: What about the Ki [2] of the same compound?
A: 0.711 nM

Q: And the Ki (Mu-type opioid receptor)?
A: 34.7 nM

Q: And the Ki [3]?
A: 233 nM

Q: And the Ratio Ki [4]?
A: 49

Q: Which Ratio Ki [1] does the source give for `CN(C(=O)/C=C/c1ccoc1)[C@H]1CC[C@@]2(O)[C@H]3Cc4ccc(O)cc4[C@@]2(CCN3CC2CC2)C1` here?
A: 3.8

Q: What about the Ki [2] of the same compound?
A: 0.163 nM

Q: What about the Ki (Mu-type opioid receptor) of the same compound?
A: 0.324 nM

Q: And the Ki [3]?
A: 0.623 nM

Q: And the Ratio Ki [4]?
A: 2

Q: For `CN(C(=O)/C=C/c1ccoc1)[C@H]1CC[C@@]2(O)[C@H]3CC4=C(CC(=O)CC4)[C@@]2(CCN3CC2CC2)C1`, which Ratio Ki [1] is on record?
A: 20

Q: What about the Ki [2] of the same compound?
A: 2.23 nM

Q: And the Ki (Mu-type opioid receptor)?
A: 26 nM

Q: What about the Ki [3] of the same compound?
A: 44.5 nM

Q: And the Ratio Ki [4]?
A: 12

Q: Which results are given for `CN(C(=O)/C=C/c1ccoc1)[C@H]1CC[C@@]2(O)[C@H]3CC4=C(C[C@H](O)CC4)[C@@]2(CCN3CC2CC2)C1`?
A: Ratio Ki [1]: 7.7; Ki [2]: 1.1 nM; Ki (Mu-type opioid receptor): 5.26 nM; Ki [3]: 8.45 nM; Ratio Ki [4]: 4.8

Q: For `CN(C(=O)/C=C/c1ccoc1)[C@H]1CC[C@@]2(O)[C@H]3Cc4ccccc4[C@@]2(CCN3CC2CC2)C1`, which Ratio Ki [1] is on record?
A: 19

Q: What about the Ki [2] of the same compound?
A: 0.303 nM

Q: And the Ki (Mu-type opioid receptor)?
A: 6.52 nM

Q: And the Ki [3]?
A: 5.65 nM

Q: And the Ratio Ki [4]?
A: 22

Q: Which results are given for `CN(C(=O)/C=C/c1ccoc1)[C@H]1CC[C@H]2[C@H]3CC4=C(CCCC4)[C@@]2(CCN3CC2CC2)C1`?
A: Ratio Ki [1]: 14; Ki [2]: 2.28 nM; Ki (Mu-type opioid receptor): 8.62 nM; Ki [3]: 32.9 nM; Ratio Ki [4]: 3.8

Q: Which Ratio Ki [1] does the source give for `CN(C(=O)/C=C/c1ccoc1)[C@H]1CC[C@@]2(O)[C@H]3CC4=C(C[C@@H](O)CC4)[C@@]2(CCN3CC2CC2)C1` here?
A: 19

Q: And the Ki [2]?
A: 0.451 nM

Q: And the Ki (Mu-type opioid receptor)?
A: 5.49 nM

Q: What about the Ki [3] of the same compound?
A: 8.66 nM

Q: And the Ratio Ki [4]?
A: 12
